Laboratory results reported in PMC9499365, “Stereoselective Synthesis and Application of Gibberellic Acid-Derived Aminodiols” (International Journal of Molecular Sciences, 2022).

Tests used:
[1] = test system: NIH/3T3 mouse embryo fibroblast cells; assay: MTT assay on non-cancerous fibroblasts (cancer selectivity); assay type: cell-based; conditions: for Growth inhibition (%) ± SEM / inhibition at 10 µM / inhibition at 30 µM: 72 h; for IC50: NIH/3T3, 72 h; for cancer selectivity (cancer cells vs NIH/3T3 fibroblasts), words: comparison of IC50 on fibroblasts and malignant cell lines; for inhibition at 10 µM / inhibition at 30 µM: read-out: Growth inhibition (%) ± SEM
Procedure: (§1) The in vitro antiproliferative activities of the synthesized aminodiols 4–38 against a panel of different human cancer cell lines of gynecological origin, including cervical (SiHA and HeLa), breast (MCF7 and MDA-MB-231), and ovary (A2780) cancers were assayed by the MTT method. […] Cisplatin, a clinically applied anticancer agent, was used as a reference compound and the results are summarized in Figure 3 and Table S1 in Supporting Information. […] On the other hand, none of the prepared azole derivatives exerted relevant activity.
(§2) The growth-inhibitory effects of the gibberellic acid-based aminodiol derivatives were determined by a standard MTT (3-(4,5-dimethylthiazol-2-yl)-2,5-diphenyltetrazolium bromide) assay on a panel containing five cell lines, including Hela and Siha (cervical cancers); MDA-MB-231 and MCF-7 (breast cancers); and A2780 ovarian cancer cells. The most promising agents were additionally tested against NIH/3T3 mouse embryo fibroblast cells. All cell lines were purchased from the European Collection of Cell Cultures (Salisbury, UK) except SiHa, which was obtained from the American Tissue Culture Collection (Manassas, VA, USA). The cells were maintained in minimal essential medium supplemented with 10% fetal bovine serum, 1% non-essential amino acids, and 1% penicillin-streptomycin at 37 °C in a humidified atmosphere containing 5% CO2. All media and supplements were obtained from Lonza Group Ltd., (Basel, Switzerland). Cancer cells were seeded into 96-well plates (5000 cells/well), after an overnight incubation the test compound was added in 2 different concentrations (10 µM and 30 µM) and incubated for another 72 h under cell-culturing conditions. Then, 20 μL of 5 mg/mL MTT solution was added to each well and incubated for a further 4 h. The medium was removed, and the precipitated formazan crystals were dissolved in DMSO during 60 min of shaking at 37 °C. As the final step, the absorbance was measured at 545 nm by using a microplate reader (SPECTROStar Nano, BMG Labtech, Offenburg, Germany). Untreated cells were included as controls. […] These agents were additionally tested against NIH/3T3 fibroblasts to obtain results about their cancer selectivity. Two independent experiments were performed with five wells for each condition. Cisplatin (Ebewe GmbH, Unterach, Austria), a clinically used anticancer agent, was used as a positive control. Calculations were performed utilizing the GraphPad Prism 5.01 software (GraphPad Software Inc., San Diego, CA, USA).

[2] = DPPH free radical scavenging assay; conditions: concentration range 3–100 µM
Procedure: As a consequence, in vitro antioxidant activities of selected N-aliphatic- and N-aryl-substituted aminodiols were determined by 1,1-diphenyl-2-picrylhydrazyl (DPPH) assay.
The antioxidant effects of the aminodiol derivatives were tested on 1,1-diphenyl-2-picrylhydrazyl (DPPH) radicals according to Brand-Williams (1995) [55] and Sánchez-Moreno (2002) [56], with some modifications. […] After a 30 min incubation period at room temperature (25 °C) the absorbances were measured at 517 nm by a microplate reader (SPECTROStar Nano, BMG Labtech, Offenburg, Germany). Trolox (3,4-Dihydro-6-hydroxy-2,5,7,8-tetramethyl-2H-1-benzopyran-2-carboxylic acid) was used as a positive control. All measurements were performed in duplicate with 5 parallels.

[3] = test system: HeLa cells (cervical cancer); assay: MTT antiproliferative assay, HeLa; assay type: cell-based, human; conditions: 72 h; for inhibition at 10 µM / inhibition at 30 µM: read-out: Growth inhibition (%) ± SEM
Procedure: as §1, §2

[4] = test system: SiHa cells (cervical cancer); assay: MTT antiproliferative assay, SiHa; assay type: cell-based, human; conditions: 72 h; for inhibition at 10 µM / inhibition at 30 µM: read-out: Growth inhibition (%) ± SEM
Procedure: as §1, §2

[5] = test system: MDA-MB-231 cells (breast cancer); assay: MTT antiproliferative assay, MDA-MB-231; assay type: cell-based, human; conditions: for Growth inhibition (%) ± SEM / inhibition at 10 µM / inhibition at 30 µM: 72 h; for IC50: MDA-MB-231, 72 h; for inhibition at 10 µM / inhibition at 30 µM: read-out: Growth inhibition (%) ± SEM
Procedure: as §1, §2

[6] = test system: A2780 ovarian cancer cells; assay: MTT antiproliferative assay, A2780; assay type: cell-based, human; conditions: for Growth inhibition (%) ± SEM / inhibition at 10 µM / inhibition at 30 µM: 72 h; for IC50: A2780, 72 h; for inhibition at 10 µM / inhibition at 30 µM: read-out: Growth inhibition (%) ± SEM
Procedure: as §1, §2

[7] = test system: panel of human cancer cell lines; assay: MTT antiproliferative assay, panel of human cancer cell lines (summary statements); assay type: cell-based; conditions: range over the cancer cell lines, read-out: calculated IC50 value on the malignant cell lines
Procedure: as §1
The growth-inhibitory effects of the gibberellic acid-based aminodiol derivatives were determined by a standard MTT (3-(4,5-dimethylthiazol-2-yl)-2,5-diphenyltetrazolium bromide) assay on a panel containing five cell lines, including Hela and Siha (cervical cancers); MDA-MB-231 and MCF-7 (breast cancers); and A2780 ovarian cancer cells. The most promising agents were additionally tested against NIH/3T3 mouse embryo fibroblast cells. All cell lines were purchased from the European Collection of Cell Cultures (Salisbury, UK) except SiHa, which was obtained from the American Tissue Culture Collection (Manassas, VA, USA). […] As the final step, the absorbance was measured at 545 nm by using a microplate reader (SPECTROStar Nano, BMG Labtech, Offenburg, Germany). […]

[8] = Mus musculus, NIH3T3, NIH/3T3, 10 μM
[9] = Mus musculus, NIH3T3, NIH/3T3, 30 μM
[10] = Homo sapiens, MDA-MB-231, 10 μM
[11] = Homo sapiens, MDA-MB-231, 30 μM

SMILES: CCOC(=O)[C@H]1c2c(C)cccc2[C@H]2CC[C@]3(O)C[C@@]21C[C@]3(O)CN[C@@H](C)c1ccc2ccccc2c1 [Compound 12]
- Growth inhibition (%) ± SEM ([1]; NIH/3T3, 10 μM): 90.43 ± 0.15%
- Growth inhibition (%) ± SEM ([1]; NIH/3T3, 30 μM): 91.03 ± 0.05%
- IC50 [1]: 4.57 ± 0.23 µM
- cancer selectivity (cancer cells vs NIH/3T3 fibroblasts), words [1]: inhibited the growth of cancer cells and fibroblasts in the same concentration range
- DPPH scavenging activity [2]: None of the six molecules elicited considerable activity
- Growth inhibition (%) ± SEM ([3]; 10 μM): 97.69 ± 0.28%
- Growth inhibition (%) ± SEM ([3]; 30 μM): 97.62 ± 0.55%
- IC50 [3]: 4.14 ± 0.38 µM
- Growth inhibition (%) ± SEM ([4]; 10 μM): 97.41 ± 0.15%
- Growth inhibition (%) ± SEM ([4]; 30 μM): 97.06 ± 0.20%
- IC50 [4]: 4.17 ± 0.32 µM
- Growth inhibition (%) ± SEM ([5]; MDA-MB-231, 10 μM): 95.00 ± 0.69%
- Growth inhibition (%) ± SEM ([5]; MDA-MB-231, 30 μM): 93.72 ± 0.88%
- IC50 [5]: 7.19 ± 1.48 µM
- Growth inhibition (%) ± SEM ([6]; A2780, 10 μM): 96.29 ± 0.59%
- Growth inhibition (%) ± SEM ([6]; A2780, 30 μM): 96.28 ± 0.82%
- IC50 [6]: 5.45 ± 0.31 µM

SMILES: CCOC(=O)[C@H]1c2c(C)cccc2[C@H]2CC[C@]3(O)C[C@@]21C[C@]3(O)CN[C@@H](C)c1cccc2ccccc12 [Compound 13, Ethyl (4bS,7S,8S,9aR,10R)-7,8-dihydroxy-1-methyl-8-((((S)-1-(naphthalen-1-yl)ethyl)amino)methyl)-4b,6,7,8,9,10-hexahydro-5H-7,9a-methanobenzo[a]azulene-10-carboxylate]
- inhibition at 10 µM [1, 8]: 40.5 ± 0.86%
- inhibition at 30 µM [1, 9]: 88.1 ± 0.16%
- IC50 ([1]; Mus musculus, NIH3T3): 10.9 µM
- cancer selectivity (cancer cells vs NIH/3T3 fibroblasts), words [1]: modest cancer selectivity
- DPPH scavenging activity [2]: None of the six molecules elicited considerable activity
- inhibition at 10 µM ([3]; Homo sapiens, 10 μM): 97.16 ± 0.49%
- inhibition at 30 µM ([3]; Homo sapiens, 30 μM): 96.87 ± 0.47%
- IC50 ([3]; Homo sapiens): 4.38 ± 0.08 µM
- IC50 [7]: 4.38 to 7.49 µM
- inhibition at 10 µM ([4]; Homo sapiens, 10 μM): 96.05 ± 0.46%
- inhibition at 30 µM ([4]; Homo sapiens, 30 μM): 96.74 ± 0.27%
- IC50 ([4]; Homo sapiens): 4.69 ± 0.17 µM
- IC50 ([5]; Homo sapiens): 7.49 ± 1.26 µM
- inhibition at 10 µM [5, 10]: 94.86 ± 0.83%
- inhibition at 30 µM [5, 11]: 96 ± 0.92%
- IC50 ([6]; Homo sapiens): 5.3 ± 0.41 µM
- inhibition at 10 µM ([6]; Homo sapiens, A2780, 10 μM): 91.2 ± 1.96%
- inhibition at 30 µM ([6]; Homo sapiens, A2780, 30 μM): 96.7 ± 1.17%

SMILES: CCOC(=O)[C@H]1c2c(C)cccc2C2CC[C@]3(O)C[C@@]21C[C@]3(O)CN[C@H](C)c1cccc2ccccc12 (stereo partly drawn) [Compound 14, Ethyl (7S,8S,9aR,10R)-7,8-dihydroxy-1-methyl-8-((((R)-1-(naphthalen-1-yl)ethyl)amino)methyl)-4b,6,7,8,9,10-hexahydro-5H-7,9a-methanobenzo[a]azulene-10-carboxylate]
- inhibition at 10 µM [1, 8]: 88.6 ± 0.97%
- inhibition at 30 µM [1, 9]: 88.7 ± 0.98%
- IC50 ([1]; Mus musculus, NIH3T3): 5.02 ± 0.26 µM
- cancer selectivity (cancer cells vs NIH/3T3 fibroblasts), words [1]: inhibited the growth of cancer cells and fibroblasts in the same concentration range
- DPPH scavenging activity [2]: None of the six molecules elicited considerable activity
- inhibition at 10 µM ([3]; Homo sapiens, 10 μM): 98.08 ± 0.19%
- inhibition at 30 µM ([3]; Homo sapiens, 30 μM): 97.4 ± 0.34%
- IC50 ([3]; Homo sapiens): 4.66 ± 0.21 µM
- inhibition at 10 µM ([4]; Homo sapiens, 10 μM): 96.3 ± 2.13%
- inhibition at 30 µM ([4]; Homo sapiens, 30 μM): 97.84 ± 0.42%
- IC50 ([4]; Homo sapiens): 5.25 ± 0.86 µM
- IC50 ([5]; Homo sapiens): 8.04 ± 0.61 µM
- inhibition at 10 µM [5, 10]: 96.57 ± 0.37%
- inhibition at 30 µM [5, 11]: 96.77 ± 0.16%
- IC50 ([6]; Homo sapiens): 5.15 ± 0.28 µM
- inhibition at 10 µM ([6]; Homo sapiens, A2780, 10 μM): 96.53 ± 0.73%
- inhibition at 30 µM ([6]; Homo sapiens, A2780, 30 μM): 95.9 ± 1.06%

SMILES: CCOC(=O)[C@H]1c2c(C)cccc2[C@H]2CC[C@]3(O)C[C@@]21C[C@]3(O)CN(C)Cc1ccccc1 [Compound 16, Ethyl (4bS,7S,8S,9aR,10R)-8-((benzyl(methyl)amino)methyl)-7,8-dihydroxy-1-methyl-4b,6,7,8,9,10-hexahydro-5H-7,9a-methanobenzo[a]azulene-10-carboxylate]
- melting point: 94 to 95 °C
- DPPH scavenging activity [2]: None of the six molecules elicited considerable activity
- inhibition at 10 µM ([3]; Homo sapiens, 10 μM): < 20%
- inhibition at 30 µM ([3]; Homo sapiens, 30 μM): 36 ± 2.89%
- inhibition at 10 µM ([4]; Homo sapiens, 10 μM): < 20%
- inhibition at 30 µM ([4]; Homo sapiens, 30 μM): 23 ± 0.39%
- inhibition at 10 µM [5, 10]: < 20%
- inhibition at 30 µM [5, 11]: 25 ± 0.99%
- inhibition at 10 µM ([6]; Homo sapiens, A2780, 10 μM): < 20%
- inhibition at 30 µM ([6]; Homo sapiens, A2780, 30 μM): 21.6 ± 0.85%

SMILES: CCOC(=O)[C@H]1c2c(C)cccc2[C@H]2CC[C@]3(O)C[C@@]21C[C@]3(O)CN [Compound 25, Ethyl (4bS,7S,8S,9aR,10R)-8-(aminomethyl)-7,8-dihydroxy-1-methyl-4b,6,7,8,9,10-hexahydro-5H-7,9a-methanobenzo[a]azulene-10-carboxylate]
- melting point: 92 to 94 °C
- DPPH scavenging activity [2]: None of the six molecules elicited considerable activity
- inhibition at 10 µM ([3]; Homo sapiens, 10 μM): < 20%
- inhibition at 30 µM ([3]; Homo sapiens, 30 μM): < 20%
- inhibition at 10 µM ([4]; Homo sapiens, 10 μM): < 20%
- inhibition at 30 µM ([4]; Homo sapiens, 30 μM): < 20%
- inhibition at 10 µM [5, 10]: < 20%
- inhibition at 30 µM [5, 11]: < 20%
- inhibition at 10 µM ([6]; Homo sapiens, A2780, 10 μM): < 20%
- inhibition at 30 µM ([6]; Homo sapiens, A2780, 30 μM): < 20%

SMILES: CCOC(=O)[C@H]1c2c(C)cccc2[C@H]2CC[C@]3(O)C[C@@]21C[C@]3(O)Cn1nnc2ccccc21 [Compound 30, Ethyl (4bS,7S,8S,9aR,10R)-8-((1H-benzo[d][1,2,3]triazol-1-yl)methyl)-7,8-dihydroxy-1-methyl-4b,6,7,8,9,10-hexahydro-5H-7,9a-methanobenzo[a]azulene-10-carboxylate]
- DPPH scavenging activity [2]: None of the six molecules elicited considerable activity
- inhibition at 10 µM ([3]; Homo sapiens, 10 μM): < 20%
- inhibition at 30 µM ([3]; Homo sapiens, 30 μM): < 20%
- inhibition at 10 µM ([4]; Homo sapiens, 10 μM): < 20%
- inhibition at 30 µM ([4]; Homo sapiens, 30 μM): 29.5 ± 2%
- inhibition at 10 µM [5, 10]: < 20%
- inhibition at 30 µM [5, 11]: < 20%
- inhibition at 10 µM ([6]; Homo sapiens, A2780, 10 μM): < 20%
- inhibition at 30 µM ([6]; Homo sapiens, A2780, 30 μM): 26.8 ± 3.79%
